From patent US20210161837A1, “METHODS FOR TREATING CANCER WITH RORGAMMA INHIBITORS” (The Regents of the University of California, priority 2016, published 2021)

Experiments:
[1] = system: HCC1954; assay: Cell viability (CellTiter-GLO), 4 days, HER2-positive cells; type: cell-based; details: Homo sapiens, 96 h; HER2-positive HCC1954, 4 days
Description: (§1) For cell viability, cells were seeded in 96-well plates at 1500-2500 cells per well (optimum density for growth, depending on the specific cell line) in a total volume of 100 μl media. Serially diluted compounds in 100 μl of media were added to the cells 12 hours later. After 4 days of incubation, Cell-Titer GLO reagents (Promega) were added and luminescence was measured on GLOMAX microplate luminometer (Promega), according to the manufacturer's instructions. All experimental points were set up as sextuplicate as biological replication and the entire experiments were repeated three times. The data are presented as percentage of viable cells with vehicle treated cells set as 100. The estimated in vitro IC50 values were calculated using GraphPad Prism 6 software.

[2] = system: MCF-7-TamR; assay: Growth and survival of tamoxifen-resistant breast cancer cells; type: cell-based, human
[3] = system: CRPC cells; assay: Growth inhibition of CRPC cells compared with enzalutamide; type: cell-based, human
Description: (§2) Data shown are mean percentage of apoptotic cells±s.d. […] Data shown are mean±s.d. Significance was calculated using Student's t-test. *p<0.05, **p<0.01.
(§3) (a&b) C4-2B and 22Rv1 cell proliferation after the RORγ antagonist treatment. Cells were seeded in 6-well plates and counted after cells were treated with indicated concentrations of RORγ antagonists for 0, 2, 4 and 6 days by Coulter counter. […] (e) representative images of TUNEL positive cells treated with vehicle or the antagonist (5 μM) in 22Rv1 cells are shown. […] Three days later, cells were harvested for immunoblotting with indicated antibodies.
LNCaP, C4-2B, 22Rv, PC-3, and PC346C prostate cancer cells were cultured in RPMI1640, VCaP, HEK293T and human fibroblast IMR90 cells were in DMEM, LAPC-4 was in Iscove's MEM (all from Corning), and RWPE-1 and PZ-HPV-7 were in Keratinocyte Serum Free Medium (K-SFM) (Invitrogen) with the supplements. All the culture media except for RWPE-1 and PZ-HPV-7 were supplemented with 10% FBS (Hyclone) except indicated otherwise. For experiments, C4-2B cells were cultured in RPMI supplemented with 9% cds-FBS plus 1% regular FBS (to mimic the CRPC condition) unless indicated otherwise and 22Rv1 cells were cultured in RPMI supplemented with 10% cds-FBS. Cells were grown at 37° C. in 5% CO2 incubators. LNCaP, VCaP, 22Rv1, PC-3, 293T, IMR90, PZ-HPV-7 and RWPE-1 were from ATCC. […]

[4] = system: LNCaP cells; assay: Cell viability (CellTiter-GLO), 4 days; type: cell-based; details: Homo sapiens, read-out: inhibitory potency (growth inhibition)
Description: as §3
LNCaP, C4-2B, 22Rv, PC-3, and PC346C prostate cancer cells were cultured in RPMI1640, VCaP, HEK293T and human fibroblast IMR90 cells were in DMEM, LAPC-4 was in Iscove's MEM (all from Corning), and RWPE-1 and PZ-HPV-7 were in Keratinocyte Serum Free Medium (K-SFM) (Invitrogen) with the supplements. All the culture media except for RWPE-1 and PZ-HPV-7 were supplemented with 10% FBS (Hyclone) except indicated otherwise. […]
For cell viability, cells were seeded in 96-well plates at 1500-2500 cells per well (optimum density for growth, depending on the specific cell line) in a total volume of 100 μl media. […] After 4 days of incubation, Cell-Titer GLO reagents (Promega) were added and luminescence was measured on GLOMAX microplate luminometer (Promega), according to the manufacturer's instructions. […] The estimated in vitro IC50 values were calculated using GraphPad Prism 6 software.

[5] = system: C4-2B xenografts; assay: C4-2B xenograft tumor growth; type: in vivo, mouse; details: 20 mg/kg, i.p., 5 times a week, 21-24 days
[6] = system: lung cancer cells (A427, Calu1, A549, H23, H358, H1666, HCC827, PC-9, H69, H209); assay: Cell viability (CellTiter-GLO), 4 days, lung cancer cells; type: cell-based; details: Homo sapiens, 96 h, NSCLC and SCLC lung cancer cells
Description: All those cells are derived from human tumors of non-small cell lung carcinoma (NSCLC).

[7] = system: key proliferation and survival proteins, including Myc; assay: Immunoblotting of key proliferation and survival proteins; type: cell-based, human; details: 3 days
Description: as §2, §3
Total RNA was isolated from cells in 6-well or 10-cm plates or from xenograft tumors, and the cDNA was prepared, amplified and measured in the presence of SYBR as described in Yang, P., et al., Molecular and cellular biology 32, 3121-3131 (2012). Briefly, the fluorescent values were collected and a melting curve analysis was performed. Fold difference was calculated as described previously Yang, P., et al. (see, id). The experiments were performed at least three times with data presented as mean values±s.d. Cell lysates were analyzed by immunoblotting with antibodies specifically recognizing RORγ, AR, AR-V7 and the indicated proteins.

[8] = system: HCC70 cells; assay: Cell viability (CellTiter-GLO), 4 days, TNBC cells; type: cell-based, human
Description: (§4) The “No.” label for each compound corresponds to the “Structure No.” in Table 2 (e.g., “No. 36”=“Structure No. 36” in Table 2). The cell viability curves were measured by CellTiter-GLO.
as §1, with “growth)” for “growth, depending on the specific cell line)”

[9] = system: MDA-MB468 cells; assay: Cell viability (CellTiter-GLO), 4 days, TNBC cells; type: cell-based, human
Description: as §4
as §1, with “growth)” for “growth, depending on the specific cell line)”

[10] = system: OVCAR420, T24, ECC1, T98G, SUDHL4, SUDHL6, HCT116 and docetaxel-resistant C4-2B cells; assay: Cell viability (CellTiter-GLO), 4 days, further cancer types; type: cell-based; details: Homo sapiens, 96 h, ovarian, bladder, endometrial, glioblastoma, DLBCL, colon
[11] = system: MCF-7-C6; assay: Growth and survival of radiation-resistant breast cancer cells; type: cell-based, human; details: radiation-resistant MCF-7-C6

O=C(Cc1ccccc1[N+](=O)[O-])Nc1ccc(-c2ccc(C(O)(C(F)(F)F)C(F)(F)F)cc2F)cc1 [XY018, N-(2′-fluoro-4′-(1,1,1,3,3,3-hexafluoro-2-hydroxypropan-2-yl)-[1,1′-biphenyl]-4-yl)-2-(2-nitrophenyl)acetamide]
IC50 [1]: 1470 nM
growth inhibitory effect of tamoxifen in combination with XY018 ([2]; MCF-7-TamR, tamoxifen plus XY018): synergistic growth inhibitory effect
inhibition of growth and survival ([2]; tamoxifen-resistant MCF-7-TamR, XY018 alone): potently inhibiting the growth and survival
growth inhibition, potency relative to enzalutamide [3]: strong growth inhibition with much higher potencies than that of enzalutamide
IC50 [4]: 2100 nM
tumor growth inhibition [5]: strong tumor growth inhibition
IC50 [6]: 3300 to 9000 nM
expression of key proliferation and survival proteins, including Myc [7]: strongly inhibited the expression
inhibition of growth and survival [8]: strongly inhibited the growth and survival
inhibition of growth and survival [9]: strongly inhibited the growth and survival
IC50 [10]: < 3500 nM
inhibition of growth and survival [11]: potently inhibiting the growth and survival
